According to patent publication US9328122B2, “7-substituted Hanfangichin B derivative, and preparation method and use thereof” (HANGZHOU BENSHENG PHARMACEUTICAL CO., LTD., priority 2012, dated 2016):
In brackets after ≈: the same amount, converted by molar mass.

Experiments:
[1] = tested on: Jurkat (acute lymphoblastic leukemia) cells; test: MTT cell growth inhibition, leukemia cells; type: cell-based, human
Excerpt: (§1) Leukemia cell lines: leukemia cell lines: K562adr (drug-resistant, chronic myeloid leukemia, CML), NB4 (acute promyelocytic leukemia, AML), Kasumi-1 (acute myeloid leukemia M2 type, AML-M2), Jurkat (acute lymphoblastic leukemia, ALL), all of which were donated by Cancer Research Institute of Zhejiang University, China; and H9 (acute lymphoblastic leukemia, ALL), which was purchased from China Center for Type Culture Collection.
(§2) Reagents: The standard sample of fangchinoline (FAN) was purchased from Ci Yuan Biotechnology Co., Ltd., Shaanxi, China; and the 7-substituted fangchinoline derivatives according to the present invention.
(§3) 6000 well-growing leukemia cells were obtained and inoculated into wells of a 96-well cell culture plate. The culture medium was a RPMI-1640 cell culture medium containing 10% fetal bovine serum. After adding the 7-substituted fangchinoline derivatives of different concentrations the next day and mixing uniformly, the plate was placed in a carbon dioxide cell incubator (5% CO2) at 37° C. and incubating for 72 hours. Then the viable cell concentration was determined by the MTT method.

[2] = tested on: Kasumi-1 (acute myeloid leukemia M2 type) cells; test: MTT cell growth inhibition, leukemia cells; type: cell-based, human; conditions: Homo sapiens, Kasumi-1, 72 h, MTT
Excerpt: as §1, §2, §3

[3] = tested on: RPMI 8226 (multiple myeloma) cells; test: MTT cell growth inhibition, multiple myeloma cells; type: cell-based, human; conditions: Homo sapiens, RPMI 8226, 72 h, MTT
Description: Myeloma cell lines: RPMI8226 (multiple myeloma), purchased from Fuxiang Bio-tech Co. Ltd., Shanghai, China.
as §3, with “well-growing” for “well-growing leukemia”, “incubated” for “incubating”

[4] = tested on: CNE (nasopharyngeal carcinoma) cells; test: MTT cell growth inhibition, solid tumor cells; type: cell-based, human; conditions: Homo sapiens, CNE, 72 h, MTT
Excerpt: (§4) Hep-2 (laryngeal carcinoma), A549 (human lung cancer), CaES-17 (esophageal cancer cell), PC-3 (prostate cancer), CNE (nasopharyngeal carcinoma cell) and SK-OV-3 (ovarian cancer cell), all of which were purchased from China Center For Type Culture Collection; RKO (human colon adenocarcinoma cell), MGC-803 (human gastric cancer cell), MG-63 (osteosarcoma), and U87-MG (malignant glioma cell), all of which were purchased from Fuxiang Bio-tech Co. Ltd., Shanghai, China; PANC-1 (pancreatic cancer), Becap37 (human breast cancer cell), Hela (human cervical cancer cell) and Hep G2 (human liver cancer cell), all of which were donated by Cancer Research Institute of Zhejiang University, China.
as §3, with “human solid tumor” for “leukemia”, “DMEM High Glucose” for “a RPMI-1640”, “serum. The plate was placed in a carbon dioxide cell incubator (5% CO2) at 37° C. and incubated for 24 hours.” for “serum.”, “added with” for “adding the”, “concentration” for “concentrations the next day”, “incubated” for “incubating”

[5] = tested on: CaEs-17 (esophageal cancer) cells; test: MTT cell growth inhibition, solid tumor cells; type: cell-based, human; conditions: Homo sapiens, CaEs17, CaEs-17, 72 h, MTT
Excerpt: as §4
as §3, with “human solid tumor” for “leukemia”, “DMEM High Glucose” for “a RPMI-1640”, “serum. The plate was placed in a carbon dioxide cell incubator (5% CO2) at 37° C. and incubated for 24 hours.” for “serum.”, “added with” for “adding the”, “concentration” for “concentrations the next day”, “incubated” for “incubating”

[6] = tested on: PANC-1 (pancreatic cancer) cells; test: MTT cell growth inhibition, solid tumor cells; type: cell-based, human; conditions: Homo sapiens, PANC-1, 72 h, MTT
Excerpt: as §4
as §3, with “human solid tumor” for “leukemia”, “DMEM High Glucose” for “a RPMI-1640”, “serum. The plate was placed in a carbon dioxide cell incubator (5% CO2) at 37° C. and incubated for 24 hours.” for “serum.”, “added with” for “adding the”, “concentration” for “concentrations the next day”, “incubated” for “incubating”

[7] = tested on: PC-3 (prostate cancer) cells; test: MTT cell growth inhibition, solid tumor cells; type: cell-based, human; conditions: Homo sapiens, PC-3, 72 h, MTT
Excerpt: as §4
as §3, with “human solid tumor” for “leukemia”, “DMEM High Glucose” for “a RPMI-1640”, “serum. The plate was placed in a carbon dioxide cell incubator (5% CO2) at 37° C. and incubated for 24 hours.” for “serum.”, “added with” for “adding the”, “concentration” for “concentrations the next day”, “incubated” for “incubating”

[8] = tested on: SK-OV-3 (ovarian cancer) cells; test: MTT cell growth inhibition, solid tumor cells; type: cell-based, human; conditions: Homo sapiens, SK-OV-3, 72 h, MTT
Excerpt: as §4
as §3, with “human solid tumor” for “leukemia”, “DMEM High Glucose” for “a RPMI-1640”, “serum. The plate was placed in a carbon dioxide cell incubator (5% CO2) at 37° C. and incubated for 24 hours.” for “serum.”, “added with” for “adding the”, “concentration” for “concentrations the next day”, “incubated” for “incubating”

[9] = tested on: A549 (human lung cancer) cells; test: MTT cell growth inhibition, solid tumor cells; type: cell-based
Excerpt: as §4
as §3, with “human solid tumor” for “leukemia”, “DMEM High Glucose” for “a RPMI-1640”, “serum. The plate was placed in a carbon dioxide cell incubator (5% CO2) at 37° C. and incubated for 24 hours.” for “serum.”, “added with” for “adding the”, “concentration” for “concentrations the next day”, “incubated” for “incubating”

[10] = tested on: Becap-37 (human breast cancer) cells; test: MTT cell growth inhibition, solid tumor cells; type: cell-based; conditions: Homo sapiens, Becap-37, 72 h, MTT
Excerpt: as §4
as §3, with “human solid tumor” for “leukemia”, “DMEM High Glucose” for “a RPMI-1640”, “serum. The plate was placed in a carbon dioxide cell incubator (5% CO2) at 37° C. and incubated for 24 hours.” for “serum.”, “added with” for “adding the”, “concentration” for “concentrations the next day”, “incubated” for “incubating”

[11] = tested on: Hela (human cervical cancer) cells; test: MTT cell growth inhibition, solid tumor cells; type: cell-based; conditions: Homo sapiens, Hela, 72 h, MTT
Excerpt: as §4
as §3, with “human solid tumor” for “leukemia”, “DMEM High Glucose” for “a RPMI-1640”, “serum. The plate was placed in a carbon dioxide cell incubator (5% CO2) at 37° C. and incubated for 24 hours.” for “serum.”, “added with” for “adding the”, “concentration” for “concentrations the next day”, “incubated” for “incubating”

[12] = tested on: Hep G2 (human liver cancer) cells; test: MTT cell growth inhibition, solid tumor cells; type: cell-based; conditions: Homo sapiens, HepG2, Hep G2, 72 h, MTT
Excerpt: as §4
as §3, with “human solid tumor” for “leukemia”, “DMEM High Glucose” for “a RPMI-1640”, “serum. The plate was placed in a carbon dioxide cell incubator (5% CO2) at 37° C. and incubated for 24 hours.” for “serum.”, “added with” for “adding the”, “concentration” for “concentrations the next day”, “incubated” for “incubating”

[13] = tested on: Hep-2 (laryngeal carcinoma) cells; test: MTT cell growth inhibition, solid tumor cells; type: cell-based; conditions: Homo sapiens, Hep-2, 72 h, MTT
Excerpt: as §4
as §3, with “human solid tumor” for “leukemia”, “DMEM High Glucose” for “a RPMI-1640”, “serum. The plate was placed in a carbon dioxide cell incubator (5% CO2) at 37° C. and incubated for 24 hours.” for “serum.”, “added with” for “adding the”, “concentration” for “concentrations the next day”, “incubated” for “incubating”

[14] = tested on: MG-63 (osteosarcoma) cells; test: MTT cell growth inhibition, solid tumor cells; type: cell-based; conditions: Homo sapiens, MG-63, 72 h, MTT
Excerpt: as §4
as §3, with “human solid tumor” for “leukemia”, “DMEM High Glucose” for “a RPMI-1640”, “serum. The plate was placed in a carbon dioxide cell incubator (5% CO2) at 37° C. and incubated for 24 hours.” for “serum.”, “added with” for “adding the”, “concentration” for “concentrations the next day”, “incubated” for “incubating”

[15] = tested on: MGC-803 (human gastric cancer) cells; test: MTT cell growth inhibition, solid tumor cells; type: cell-based; conditions: MGC-803, 72 h, MTT
Excerpt: as §4
as §3, with “human solid tumor” for “leukemia”, “DMEM High Glucose” for “a RPMI-1640”, “serum. The plate was placed in a carbon dioxide cell incubator (5% CO2) at 37° C. and incubated for 24 hours.” for “serum.”, “added with” for “adding the”, “concentration” for “concentrations the next day”, “incubated” for “incubating”

[16] = tested on: RKO (human colon adenocarcinoma) cells; test: MTT cell growth inhibition, solid tumor cells; type: cell-based; conditions: Homo sapiens, RKO, 72 h, MTT
Excerpt: as §4
as §3, with “human solid tumor” for “leukemia”, “DMEM High Glucose” for “a RPMI-1640”, “serum. The plate was placed in a carbon dioxide cell incubator (5% CO2) at 37° C. and incubated for 24 hours.” for “serum.”, “added with” for “adding the”, “concentration” for “concentrations the next day”, “incubated” for “incubating”

[17] = tested on: U87-MG (malignant glioma) cells; test: MTT cell growth inhibition, solid tumor cells; type: cell-based; conditions: Homo sapiens, U-87 MG, U87-MG, 72 h, MTT
Excerpt: as §4
as §3, with “human solid tumor” for “leukemia”, “DMEM High Glucose” for “a RPMI-1640”, “serum. The plate was placed in a carbon dioxide cell incubator (5% CO2) at 37° C. and incubated for 24 hours.” for “serum.”, “added with” for “adding the”, “concentration” for “concentrations the next day”, “incubated” for “incubating”

tumor = test: Antitumor activity compared with fangchinoline, overall statement; type: cell-based; conditions: tumor type not specified

COc1ccc2cc1Oc1ccc(cc1)C[C@H]1c3cc(c(OC)cc3CCN1C)Oc1c(OC(=O)c3ccc(N(C)C)cc3)c(OC)cc3c1[C@H](C2)N(C)CC3 [BS-FC-308] was tested, and the IC50 ([1]; Homo sapiens, Jurkat, 72 h, MTT, read-out: IC50) was 0.36 µg/mL (≈ 0.476 µM), the IC90 ([1]; Homo sapiens, Jurkat, 72 h, MTT, read-out: IC90) was 1.62 µg/mL (≈ 2.14 µM) and the “anti-Jurkat activity increase over fangchinoline” value ([1]; relative to fangchinoline, Table 1) was “more than 4 fold”. For the same molecule, the IC50 ([2]; read-out: IC50) was 0.81 µg/mL (≈ 1.07 µM), the IC90 ([2]; read-out: IC90) was 1.9 µg/mL (≈ 2.51 µM) and the IC50 ([3]; read-out: IC50) was 0.12 µg/mL (≈ 0.159 µM). It also gave an IC90 ([3]; read-out: IC90) of 0.25 µg/mL (≈ 0.331 µM), an IC50 ([4]; read-out: IC50) of 1.9 µg/mL (≈ 2.51 µM) and an IC90 ([4]; read-out: IC90) of 3.6 µg/mL (≈ 4.76 µM). For the same molecule, the IC50 ([5]; read-out: IC50) was 0.93 µg/mL (≈ 1.23 µM), the IC90 ([5]; read-out: IC90) was 3.92 µg/mL (≈ 5.19 µM) and the IC50 ([6]; read-out: IC50) was 2.38 µg/mL (≈ 3.15 µM). The IC90 ([6]; read-out: IC90) was 8.53 µg/mL (≈ 11.3 µM), the IC50 ([7]; read-out: IC50) was 2.4 µg/mL (≈ 3.17 µM) and the IC90 ([7]; read-out: IC90) was 3.49 µg/mL (≈ 4.62 µM). It also gave an IC50 ([8]; read-out: IC50) of 1.31 µg/mL (≈ 1.73 µM), an IC90 ([8]; read-out: IC90) of 1.93 µg/mL (≈ 2.55 µM) and an IC50 ([9]; Homo sapiens, A549, 72 h, MTT, read-out: IC50) of 0.99 µg/mL (≈ 1.31 µM). For the same molecule, the IC90 ([9]; Homo sapiens, A549, 72 h, MTT, read-out: IC90) was 3.16 µg/mL (≈ 4.18 µM), the “anti-A549 activity increase over fangchinoline” value ([9]; relative to fangchinoline, Table 2) was “more than 3 fold” and the IC50 ([10]; read-out: IC50) was 1.03 µg/mL (≈ 1.36 µM). For the same molecule, the IC90 ([10]; read-out: IC90) was 1.95 µg/mL (≈ 2.58 µM), the IC50 ([11]; read-out: IC50) was 0.89 µg/mL (≈ 1.18 µM) and the IC90 ([11]; read-out: IC90) was 1.9 µg/mL (≈ 2.51 µM). For the same molecule, the IC50 ([12]; read-out: IC50) was 1.12 µg/mL (≈ 1.48 µM), the IC90 ([12]; read-out: IC90) was 4.35 µg/mL (≈ 5.75 µM) and the IC50 ([13]; read-out: IC50) was 3.08 µg/mL (≈ 4.07 µM). The IC90 ([13]; read-out: IC90) was 6.05 µg/mL (≈ 8 µM), the IC50 ([14]; read-out: IC50) was 1.3 µg/mL (≈ 1.72 µM) and the IC90 ([14]; read-out: IC90) was 1.8 µg/mL (≈ 2.38 µM). It also gave an IC50 ([15]; read-out: IC50) of 0.57 µg/mL (≈ 0.754 µM), an IC90 ([15]; read-out: IC90) of 1.99 µg/mL (≈ 2.63 µM) and an IC50 ([16]; read-out: IC50) of 0.71 µg/mL (≈ 0.939 µM). For the same molecule, the IC90 ([16]; read-out: IC90) was 1.51 µg/mL (≈ 2 µM), the IC50 ([17]; read-out: IC50) was 1.27 µg/mL (≈ 1.68 µM) and the IC90 ([17]; read-out: IC90) was 3.75 µg/mL (≈ 4.96 µM). The “antitumor activity compared with that of fangchinoline” value (tumor) was “significantly superior”.
